Results: EPA's ToxValDB 9.5 (doi:10.2903/j.efsa.2010.1722)
≈ marks a conversion by molar mass, not a printed value.

How the values were obtained:
Aphidius matricariae [1] = assay: LR50; higher = less toxic; conditions: not reported; mortality
Aphidius matricariae [2] = conditions: not reported; reproduction
Daphnia magna = conditions: chronic/long-term; duration: 21 days; reproduction
Bibionidae = conditions: chronic/long-term; duration: 21 days; other
Colinus virginianus = conditions: reproduction developmental
Tagia sp. = conditions: acute; duration: 14 days; mortality
Canidae = conditions: oral, Dog Other
Oncorhynchus mykiss = conditions: chronic/long-term; duration: 28 days; growth
Lepomis macrochirus = conditions: acute; duration: 96 hours; mortality
Apis mellifera = conditions: acute, mortality
Mus musculus = conditions: acute; oral; mortality
Anas platyrhynchos = conditions: oral, mortality

Question: What does the source list for `C[C@H]1[C@H](c2ccc(Cl)cc2)SC(=O)N1C(=O)NC1CCCCC1` [Hexythiazox]?
Answer: LR50 (Aphidius matricariae [1]): > 158 g/ha; LEL (Aphidius matricariae [2]): 158 g/ha; NOEC (Daphnia magna): 0.0061 mg/L; NOEC (Bibionidae): 1.7 mg/L; NOEC (Colinus virginianus): 100 mg/kg-day; LD50 (Rattus norvegicus; acute, oral, mortality): > 5000 mg/kg; NOEL (Rattus norvegicus; chronic): 23.5 mg/kg-day; NOAEL (Rattus norvegicus; chronic, duration: 2 years, clinical chemistry): 3.2 mg/kg-day; LC50 (Tagia sp.): > 105 mg/kg; LD50 (Canidae; acute, mortality): > 5000 mg/kg; NOAEL (Canidae; chronic, duration: 1 years, histopathology: nonneoplastic): 2.87 mg/kg-day; NOEC (Oncorhynchus mykiss): 0.04 mg/L; LC50 (Lepomis macrochirus): 3.2 µg/mL (≈ 9.07 µM); LD50 (Apis mellifera; dermal): > 200 µg/piece; LD50 (Apis mellifera; duration: 48 hours, oral, unspecified): > 112 µg/piece; LD50 (Mus musculus): > 5000 mg/kg; LD50 (Anas platyrhynchos; acute, unspecified): > 2000 mg/kg; LC50 (Anas platyrhynchos; short-term, feed): > 523 mg/kg-day
